Experimental data reported in ChEMBL document CHEMBL5108031, “Novel N-(4-thiocyanatophenyl)-1H-1,2,3-triazole-4-carboxamides exhibit selective cytotoxic activity at nanomolar doses towards human leukemic T-cells” (Eur J Med Chem, 2022).
Calls of active or inactive are those of the source. The calls are words filed in the database; no cut-off is given here.

How the values were obtained:
[1] = test system: HOP-92; assay: Antiproliferative activity against human HOP-92 cells; assay type: functional
[2] = test system: SNB-75; assay: Antiproliferative activity against human SNB-75 cells; assay type: functional
[3] = test system: HCT-116; assay: Antiproliferative activity against human HCT-116 cells incubated for 72 hrs and measured by MTT assay; assay type: functional
[4] = test system: HCT-116; assay: Antiproliferative activity against p53-deficient human HCT-116 cells incubated for 72 hrs and measured by MTT assay; assay type: functional
[5] = test system: WM793; assay: Antiproliferative activity against human WM793 cells incubated for 72 hrs and measured by MTT assay; assay type: functional
[6] = test system: HeLa; assay: Antiproliferative activity against human HeLa cells incubated for 72 hrs and measured by MTT assay; assay type: functional
[7] = test system: KB 3-1; assay: Antiproliferative activity against human KB 3-1 cells incubated for 72 hrs and measured by MTT assay; assay type: functional
[8] = test system: A549; assay: Antiproliferative activity against human A549 cells incubated for 72 hrs and measured by MTT assay; assay type: functional
[9] = test system: MCF7; assay: Antiproliferative activity against human MCF7 cells incubated for 72 hrs and measured by MTT assay; assay type: functional
[10] = test system: MDA-MB-231; assay: Antiproliferative activity against human MDA-MB-231 cells incubated for 72 hrs and measured by MTT assay; assay type: functional
[11] = test system: SK-OV-3; assay: Antiproliferative activity against human SK-OV-3 cells incubated for 72 hrs and measured by MTT assay; assay type: functional
[12] = test system: THP-1; assay: Antiproliferative activity against human THP-1 cells incubated for 72 hrs and measured by MTT assay; assay type: functional
[13] = test system: K562; assay: Antiproliferative activity against human K562 cells incubated for 72 hrs and measured by MTT assay; assay type: functional
[14] = test system: Jurkat; assay: Antiproliferative activity against human Jurkat cells incubated for 72 hrs and measured by MTT assay; assay type: functional
[15] = test system: HaCaT; assay: Antiproliferative activity against human HaCaT cells incubated for 72 hrs and measured by MTT assay; assay type: functional
[16] = test system: HEK293; assay: Antiproliferative activity against human HEK293 cells incubated for 72 hrs and measured by MTT assay; assay type: functional
[17] = test system: BALB/3T3; assay: Antiproliferative activity against mouse BALB/3T3 cells incubated for 72 hrs and measured by MTT assay; assay type: functional
[18] = target: DNA topoisomerase 2-alpha (Homo sapiens, UniProt P11388); assay: Inhibition of DNA topoisomerase 2 alpha (unknown origin) measured by topoisomerase-mediated DNA relaxation assay
Chain of DNA topoisomerase 2-alpha (P11388 whole entry): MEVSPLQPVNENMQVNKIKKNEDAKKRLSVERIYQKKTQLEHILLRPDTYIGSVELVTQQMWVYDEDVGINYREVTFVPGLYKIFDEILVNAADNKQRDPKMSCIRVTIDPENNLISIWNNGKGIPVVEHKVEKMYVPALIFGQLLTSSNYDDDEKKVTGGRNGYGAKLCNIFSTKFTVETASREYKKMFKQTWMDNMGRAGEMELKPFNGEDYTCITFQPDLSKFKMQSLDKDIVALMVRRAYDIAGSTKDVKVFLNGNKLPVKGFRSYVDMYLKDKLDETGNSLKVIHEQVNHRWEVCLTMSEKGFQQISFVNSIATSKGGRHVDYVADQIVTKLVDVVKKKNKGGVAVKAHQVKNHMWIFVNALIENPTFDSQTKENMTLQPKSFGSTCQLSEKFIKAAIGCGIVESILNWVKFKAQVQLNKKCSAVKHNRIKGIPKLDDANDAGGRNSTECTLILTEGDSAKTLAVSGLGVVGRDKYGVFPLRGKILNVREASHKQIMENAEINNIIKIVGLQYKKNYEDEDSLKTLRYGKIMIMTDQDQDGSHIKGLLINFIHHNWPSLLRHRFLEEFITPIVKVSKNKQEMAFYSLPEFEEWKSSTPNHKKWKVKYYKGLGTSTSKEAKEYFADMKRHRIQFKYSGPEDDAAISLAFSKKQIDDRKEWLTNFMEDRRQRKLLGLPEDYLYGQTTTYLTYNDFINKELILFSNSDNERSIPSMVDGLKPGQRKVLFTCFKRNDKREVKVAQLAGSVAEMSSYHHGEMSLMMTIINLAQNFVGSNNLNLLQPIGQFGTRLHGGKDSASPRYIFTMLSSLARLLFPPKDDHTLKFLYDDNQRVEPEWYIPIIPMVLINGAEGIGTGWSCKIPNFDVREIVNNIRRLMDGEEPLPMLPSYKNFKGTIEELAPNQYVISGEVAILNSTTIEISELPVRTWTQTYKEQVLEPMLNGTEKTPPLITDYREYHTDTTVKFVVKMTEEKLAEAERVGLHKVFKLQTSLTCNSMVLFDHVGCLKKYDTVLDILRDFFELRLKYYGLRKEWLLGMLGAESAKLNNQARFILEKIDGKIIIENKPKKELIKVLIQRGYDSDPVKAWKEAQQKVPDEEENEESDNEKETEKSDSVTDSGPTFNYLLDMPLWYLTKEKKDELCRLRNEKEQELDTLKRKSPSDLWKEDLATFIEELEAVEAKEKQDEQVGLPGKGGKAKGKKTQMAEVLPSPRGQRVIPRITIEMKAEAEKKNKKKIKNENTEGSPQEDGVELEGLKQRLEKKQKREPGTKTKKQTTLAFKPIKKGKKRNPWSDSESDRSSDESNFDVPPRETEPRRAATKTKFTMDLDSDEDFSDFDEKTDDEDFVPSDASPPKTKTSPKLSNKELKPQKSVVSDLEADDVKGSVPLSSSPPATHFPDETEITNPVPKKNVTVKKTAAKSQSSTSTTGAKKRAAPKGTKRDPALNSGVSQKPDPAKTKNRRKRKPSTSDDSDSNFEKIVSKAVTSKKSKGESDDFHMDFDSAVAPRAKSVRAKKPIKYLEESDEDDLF

[19] = target: Heat shock protein HSP 90-alpha (Homo sapiens, UniProt P07900); assay: Inhibition of Hsp90alpha (unknown origin)
[20] = test system: DNA; assay: Binding affinity to DNA (unknown origin) assessed as DNA intercalation at 1 ug/ml by measuring amount of methyl green dye replaced from DNA-methyl green complex; assay type: nucleic-acid assay; conditions: Homo sapiens; dose 1.0 µg/ml
[21] = test system: DNA; assay: Binding affinity to DNA (unknown origin) assessed as DNA intercalation at 10 ug/ml by measuring amount of methyl green dye replaced from DNA-methyl green complex; assay type: nucleic-acid assay; conditions: Homo sapiens; dose 10.0 µg/ml
[22] = test system: Jurkat; assay: Induction of apoptosis in human Jurkat cells assessed as fragmented DNA and nuclei at 0.5 uM measured after 24 hrs by Hoechst 33342/propidium iodide staining based fluorescence microscopic analysis; assay type: functional, cell-based
[23] = test system: Jurkat; assay: Induction of apoptosis in human Jurkat cells assessed as condensed chromatin at 0.5 uM measured after 24 hrs by Hoechst 33342/propidium iodide staining based fluorescence microscopic analysis; assay type: functional, cell-based
[24] = test system: Jurkat; assay: Induction of apoptosis in human Jurkat cells assessed as cellular membrane blebbing at 0.5 uM measured after 24 hrs by Hoechst 33342/propidium iodide staining based fluorescence microscopic analysis; assay type: functional, cell-based
[25] = test system: Jurkat; assay: Induction of apoptosis in human Jurkat cells assessed as appearance of apoptotic bodies at 0.5 uM measured after 24 hrs by Hoechst 33342/propidium iodide staining based fluorescence microscopic analysis; assay type: functional, cell-based
[26] = test system: Jurkat; assay: Induction of apoptosis in human Jurkat cells assessed as cell debris at 0.5 uM measured after 24 hrs by Hoechst 33342/propidium iodide staining based fluorescence microscopic analysis; assay type: functional
[27] = test system: Jurkat; assay: Induction of apoptosis in human Jurkat cells assessed as decrease in mitochondrial membrane potential at 0.5 uM measured after 24 hrs by Rhodamine 123 fluorescence based assay; assay type: functional, cell-based
[28] = test system: Jurkat; assay: Induction of DNA damage in human Jurkat cells assessed as tail DNA at 0.5 uM measured after 24 hrs by comet assay; assay type: functional
[29] = test system: Jurkat; assay: Induction of DNA damage in human Jurkat cells assessed as olive tail moment at 0.5 uM measured after 24 hrs by comet assay; assay type: functional
[30] = test system: Jurkat; assay: Induction of DNA damage in human Jurkat cells assessed as DNA fragmentation at 0.5 uM measured by Diphenylamine assay; assay type: functional
[31] = species: Homo sapiens; assay: Inhibition of electrophoretic mobility of Plasmid DNA pEGFPc-1 (unknown origin) incubated for 6 hrs at 1 uM and measured by agarose gel electrophoresis method
[32] = test system: DNA; assay: Binding affinity to DNA (unknown origin) assessed as DNA intercalation at 1 uM by measuring amount of methyl green dye replaced from DNA-methyl green complex; assay type: nucleic-acid assay; conditions: Homo sapiens
[33] = test system: DNA; assay: Binding affinity to DNA (unknown origin) assessed as DNA intercalation at 10 uM by measuring amount of methyl green dye replaced from DNA-methyl green complex; assay type: nucleic-acid assay; conditions: Homo sapiens

Cc1ccc(-n2nnc(C(=O)Nc3cc(Cl)ccc3Cl)c2N)cc1
GI50 [1]: 0.58 µM | TGI [1]: 5.9 µM | GI50 [2]: 0.58 µM | TGI [2]: 5.9 µM

Cc1ccc(Cl)c(-n2nnc(C(=O)Nc3ccc(SC#N)cc3)c2C)c1
GI50 [3]: > 100 µM | GI50 [4]: > 100 µM | GI50 [5]: > 100 µM | GI50 [6]: > 100 µM | GI50 [7]: 68 µM | GI50 [8]: > 100 µM | GI50 [9]: > 100 µM | GI50 [10]: > 100 µM | GI50 [11]: 9.6 µM | GI50 [12]: > 100 µM | GI50 [13]: 6.6 µM | GI50 [14]: 66.3 µM | GI50 [15]: > 100 µM | GI50 [16]: > 100 µM | GI50 [17]: 100 µM

COc1cccc(-n2nnc(C(=O)Nc3ccc(SC#N)cc3)c2C)c1
GI50 [3]: > 100 µM | GI50 [4]: 39.8 µM | GI50 [5]: > 100 µM | GI50 [6]: > 100 µM | GI50 [7]: > 100 µM | GI50 [8]: > 100 µM | GI50 [9]: > 100 µM | GI50 [10]: > 100 µM | GI50 [11]: 64.6 µM | GI50 [12]: > 100 µM | GI50 [13]: 84.5 µM | GI50 [14]: > 100 µM | GI50 [15]: > 100 µM | GI50 [16]: > 100 µM | GI50 [17]: > 100 µM

Cc1ccc(Cl)cc1-n1nnc(C(=O)Nc2ccc(SC#N)cc2)c1C
GI50 [3]: 39.6 µM | GI50 [4]: 8.2 µM | GI50 [5]: 72.8 µM | GI50 [6]: 91.3 µM | GI50 [7]: 7.8 µM | GI50 [8]: > 100 µM | GI50 [9]: 8.4 µM | GI50 [10]: 44.6 µM | GI50 [11]: 81.5 µM | GI50 [12]: > 100 µM | GI50 [13]: 5.7 µM | GI50 [14]: 0.68 µM | GI50 [15]: > 100 µM | GI50 [16]: 91.2 µM | GI50 [17]: 9.9 µM

CCCc1c(C(=O)Nc2ccc(SC#N)cc2)nnn1-c1ccccc1
GI50 [3]: 42.3 µM | GI50 [4]: 39.6 µM | GI50 [5]: 65.7 µM | GI50 [6]: 48.8 µM | GI50 [7]: 7.8 µM | GI50 [8]: > 100 µM | GI50 [9]: 52 µM | GI50 [10]: > 100 µM | GI50 [11]: 73.7 µM | GI50 [12]: > 100 µM | GI50 [13]: 1.4 µM | GI50 [14]: 0.63 µM | GI50 [15]: > 100 µM | GI50 [16]: > 100 µM | GI50 [17]: 96.9 µM

Cc1ccc(-n2nnc(C(=O)Nc3ccc(SC#N)cc3)c2C)cc1C
GI50 [3]: > 100 µM | GI50 [4]: > 100 µM | GI50 [5]: 72.4 µM | GI50 [6]: > 100 µM | GI50 [7]: 61 µM | GI50 [8]: > 100 µM | GI50 [9]: 72 µM | GI50 [10]: > 100 µM | GI50 [11]: > 100 µM | GI50 [12]: > 100 µM | GI50 [13]: 9.2 µM | GI50 [14]: 0.68 µM | GI50 [15]: > 100 µM | GI50 [16]: > 100 µM | GI50 [17]: 9.8 µM

COc1cc([C@@H]2c3cc4c(cc3[C@@H](NC(=O)c3cn(-c5ccc(Cl)cc5)nn3)[C@H]3COC(=O)[C@H]23)OCO4)cc(OC)c1OC
IC50 [18]: < 1 µM

COCc1c(C(=O)Nc2ccc(SC#N)cc2)nnn1-c1ccc(C)cc1
GI50 [3]: 81.2 µM | GI50 [4]: 21.7 µM | GI50 [5]: 93.3 µM | GI50 [6]: > 100 µM | GI50 [7]: 53.6 µM | GI50 [8]: > 100 µM | GI50 [9]: > 100 µM | GI50 [10]: > 100 µM | GI50 [11]: 46.4 µM | GI50 [12]: > 100 µM | GI50 [13]: 42.5 µM | GI50 [14]: 4.46 µM | GI50 [15]: > 100 µM | GI50 [16]: > 100 µM | GI50 [17]: 75.7 µM

CCNC(=O)c1nnn(-c2cc(C(C)C)c(O)cc2O)c1-c1ccc(CN2CCOCC2)cc1
IC50 [19]: < 0.005 µM

CC[n+]1c(-c2ccccc2)c2cc(N)ccc2c2ccc(N)cc21
Activity [20]: 24.7% | Activity [21]: 46.6%

COc1cccc2c1C(=O)c1c(O)c3c(c(O)c1C2=O)C[C@@](O)(C(=O)CO)C[C@@H]3O[C@H]1C[C@H](N)[C@H](O)[C@H](C)O1 [DOXORUBICIN]
GI50 [3]: 0.76 µM | GI50 [4]: 0.5 µM | GI50 [5]: 0.9 µM | GI50 [6]: 0.76 µM | GI50 [7]: 0.74 µM | GI50 [8]: 1.1 µM | GI50 [9]: 0.82 µM | GI50 [10]: 0.76 µM | GI50 [11]: 8.8 µM | GI50 [12]: 23.1 µM | GI50 [13]: 0.7 µM | GI50 [14]: 0.65 µM | GI50 [15]: 0.9 µM | GI50 [16]: 0.8 µM | GI50 [17]: 0.62 µM | Activity [22]: Active | Activity [23]: Active | Activity [24]: Active | Activity [25]: Active | Activity [26]: Active | Activity [27]: Active | Activity [28]: 20.3% | Activity [29]: 5.4 | Activity [30]: 64% | inhibition [31]: Active | Activity [32]: 49.1% | Activity [33]: 54.2%
